Experimental findings from PubChem BioAssay (NCI) are described below.

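A five-concentration, 48-hour dose response in 96-well plates underlies each endpoint, interpolated linearly between surrounding concentrations. TGI is the concentration that stops growth completely.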

Some test systems named below: 786-0 renal; A549 NSCLC; HCT-116 colon; MOLT-4 leukemia; NCI-H460 lung; OVCAR-4 ovarian; OVCAR-5 ovarian; SK-MEL-5 melanoma; SK-OV-3 ovarian; SW-620 colon; UACC-62 melanoma.
What all share (assay): NCI anticancer screen, dose series, 48 h

On to `Cc1cccc2c(=O)c([Se]c3coc4c(C)cccc4c3=O)coc12`, for which the TGI with 786-0 renal is 31 µM; in the assay on A549 NSCLC it was 23.9 µM; in the assay on HCT-116 colon it was 17.2 µM; with MOLT-4 leukemia, above 100 µM; in the assay with NCI-H460 lung it was 21.3 µM; in the assay with OVCAR-4 ovarian, 35.2 µM. For the same compound, the TGI came to 34.7 µM in the assay with OVCAR-5 ovarian; 32.7 µM in the assay with SK-MEL-5 melanoma; 31.5 µM in the assay with SK-OV-3 ovarian; 39.1 µM in the assay with SW-620 colon; 33.1 µM in the assay on UACC-62 melanoma.

Take `COC(=O)/C=C\n1c(C)cc(=O)[nH]c1=O`: the TGI in the assay with 786-0 renal, in the assay with A549 NSCLC, in the assay on HCT-116 colon, in the assay on MOLT-4 leukemia, in the assay on NCI-H460 lung and in the assay with OVCAR-4 ovarian was above 100 µM in each case. In addition, the TGI in the assay with OVCAR-5 ovarian, in the assay with SK-MEL-5 melanoma, in the assay with SK-OV-3 ovarian, in the assay on SW-620 colon and with UACC-62 melanoma was above 100 µM each time.

For the compound `CN1CCCC2(CCCc3ccccc32)C1` (configuration not stated), the TGI with 786-0 renal, in the assay with A549 NSCLC, in the assay on HCT-116 colon, with MOLT-4 leukemia, in the assay on NCI-H460 lung and in the assay on OVCAR-4 ovarian was above 100 µM throughout. Further, the TGI in the assay on OVCAR-5 ovarian, in the assay with SK-MEL-5 melanoma, in the assay on SK-OV-3 ovarian, in the assay on SW-620 colon and with UACC-62 melanoma was above 100 µM each time.

For the compound `NC(N)=N/N=C/c1nc2n(c1[N+](=O)[O-])CCS2`, the TGI in the assay on 786-0 renal was above 100 µM; in the assay on A549 NSCLC, above 100 µM; in the assay with HCT-116 colon it was 54.1 µM; in the assay on MOLT-4 leukemia it was 63.7 µM; in the assay on NCI-H460 lung, 48.4 µM; in the assay with OVCAR-4 ovarian, 41 µM. Moreover, the TGI with OVCAR-5 ovarian was above 100 µM; in the assay on SK-MEL-5 melanoma, 34.4 µM; in the assay on SK-OV-3 ovarian, above 100 µM; in the assay on SW-620 colon it was above 100 µM; in the assay with UACC-62 melanoma it was above 100 µM.

For the compound `N#CCc1n[nH]c(Cc2ccccc2)n1`, the TGI in the assay with 786-0 renal, with A549 NSCLC, with HCT-116 colon, in the assay on MOLT-4 leukemia, in the assay on NCI-H460 lung and in the assay on OVCAR-4 ovarian was above 100 µM throughout. Moreover, the TGI with OVCAR-5 ovarian, with SK-MEL-5 melanoma, in the assay with SK-OV-3 ovarian, with SW-620 colon and in the assay on UACC-62 melanoma was above 100 µM in each case.

Take `CCCN(CCCC(NC(C)=O)C(=O)NCc1ccccc1)C(=O)N(CCCl)N=O` (configuration not stated): the TGI is 19.1 µM in the assay with 786-0 renal; 68.7 µM in the assay on A549 NSCLC; 29 µM in the assay on HCT-116 colon; 28 µM with MOLT-4 leukemia; 23.6 µM in the assay on NCI-H460 lung; above 85 µM in the assay on OVCAR-4 ovarian. Further, the TGI in the assay with OVCAR-5 ovarian was 64.6 µM; in the assay with SK-MEL-5 melanoma, 37.8 µM; in the assay on SK-OV-3 ovarian it was 63.1 µM; with SW-620 colon it was 49.7 µM; in the assay with UACC-62 melanoma, 12.6 µM.

With `COC(=O)C1C/C(=C/N(C)C)C(=S)N1` (configuration not stated), the TGI in the assay with 786-0 renal is above 100 µM; in the assay with A549 NSCLC it was above 100 µM; in the assay with HCT-116 colon, above 100 µM; with MOLT-4 leukemia it was above 100 µM; in the assay on NCI-H460 lung, 35.4 µM; in the assay with OVCAR-4 ovarian it was above 100 µM. Further, the TGI in the assay on OVCAR-5 ovarian, in the assay with SK-MEL-5 melanoma, in the assay on SK-OV-3 ovarian, in the assay on SW-620 colon and with UACC-62 melanoma was above 100 µM each time.

In the case of `CCSc1sc(=Nc2ccc(N=c3sc(C)c(SC)s3)cc2)sc1-c1ccc(C)cc1`, the TGI in the assay on 786-0 renal, in the assay with A549 NSCLC, in the assay with HCT-116 colon, in the assay with MOLT-4 leukemia, in the assay with NCI-H460 lung and in the assay with OVCAR-4 ovarian was above 100 µM in each case. For the same compound, the TGI with OVCAR-5 ovarian, with SK-MEL-5 melanoma, in the assay with SK-OV-3 ovarian, in the assay with SW-620 colon and with UACC-62 melanoma was above 100 µM throughout.

Regarding `Cc1cnc2sn(-c3ccc(Oc4ccccc4)cc3)c(=O)c2c1`, the TGI in the assay with 786-0 renal is 30.7 µM; in the assay with A549 NSCLC it was 46 µM; in the assay on HCT-116 colon it was 71.4 µM; with MOLT-4 leukemia, above 100 µM; in the assay with NCI-H460 lung, 23.1 µM; with OVCAR-4 ovarian, 32.9 µM. The TGI in the assay on OVCAR-5 ovarian was 35.3 µM; with SK-MEL-5 melanoma, 39.6 µM; in the assay with SK-OV-3 ovarian, above 100 µM; with SW-620 colon it was 70.7 µM; with UACC-62 melanoma, 30.7 µM.

In the case of `C[C@]12CC[C@H]3[C@@H](CC=C4C[C@@H](N5CCCC5)CC[C@@]43C)[C@@H]1C[C@H](N1CCOCC1)[C@@H]2O`, the TGI in the assay with 786-0 renal, with A549 NSCLC, in the assay on HCT-116 colon, in the assay with MOLT-4 leukemia, in the assay with NCI-H460 lung and in the assay with OVCAR-4 ovarian was above 100 µM in each case. Further, the TGI in the assay on OVCAR-5 ovarian, in the assay with SK-MEL-5 melanoma, in the assay with SK-OV-3 ovarian, with SW-620 colon and in the assay on UACC-62 melanoma was above 100 µM throughout.

With `C[C@]12CCC(=O)C=C1CC[C@@H]1[C@@H]2[C@@H](O)C[C@@]2(C)[C@H]1CC[C@]2(O)C(=O)COC(=O)COCC(=O)O`, the TGI with 786-0 renal, in the assay with A549 NSCLC, in the assay with HCT-116 colon, in the assay on MOLT-4 leukemia, in the assay on NCI-H460 lung and in the assay on OVCAR-4 ovarian was above 100 µM throughout. Also, the TGI in the assay on OVCAR-5 ovarian, in the assay on SK-MEL-5 melanoma, with SK-OV-3 ovarian, in the assay on SW-620 colon and with UACC-62 melanoma was above 100 µM each time.

Turning to `Clc1ccc(SC(/C=C/NNC2=NC(c3ccccc3)C(c3ccccc3)=NN2)c2ccccc2)cc1` (configuration not stated), the TGI with 786-0 renal is above 100 µM; in the assay with A549 NSCLC it was above 100 µM; in the assay with HCT-116 colon, 92 µM; with MOLT-4 leukemia, 38.4 µM; in the assay with NCI-H460 lung, above 100 µM; in the assay with OVCAR-4 ovarian, 68.2 µM. Moreover, the TGI in the assay on OVCAR-5 ovarian was above 100 µM; in the assay with SK-MEL-5 melanoma, 31.2 µM; in the assay on SK-OV-3 ovarian it was above 100 µM; in the assay with SW-620 colon, above 100 µM; in the assay on UACC-62 melanoma, 85.3 µM.
